Where two headings read alike, the source gives them in different places.
Assays:
[1] = test system: mouse sperm; assay: Mouse sperm total motility in vitro (CASA); type: cell-based; details: for Emax: Mus musculus, Sperm, 1 h, nanomolar range concentration, read-out: Maximal Motility Inhibition (%); for Emax / Shape of inhibitory dose response on sperm motility: mouse sperm total motility
Method: To characterize the SAR of these compounds, we first evaluated their effects on total sperm motility in vitro. Sperm isolated from the cauda epididymis of mice were incubated with the test compounds in modified Whitten’s medium under non-capacitating conditions. Motility was assessed using a computer-assisted sperm analysis (CASA) system.
All experimental protocols involving animals used in this work were approved by the University of Kansas Medical Center Institutional Animal Care and Use Committee (ACUP number: 22-09-26, 10/2022). C57BL/6 mice were purchased from Harlan (Indianapolis, IN, USA). Spermatozoa were isolated from the cauda of adult mouse epididymis in Whitten’s medium, containing 100 mM NaCl, 4.7 mM KCl, 1.2 mM KH2PO4, 1.2 mM MgSO4, 5.5 mM glucose, 0.8 mM pyruvic acid, 4.8 mM lactic acid, and 40 mM Hepes, as previously described.
Spermatozoa (1 × 10^6 cells) were incubated at 37 °C in 100 μL of Whitten’s medium, with the addition of 1.7 mM CaCl2 and in the absence and presence of different amounts of the tested compounds for 60 min. Then, cells were labeled with the fluorescent nucleic acid stain SYTO 21, which allows for the tracking of the movement of the cell head. After 1 min of incubation with the dye, 5.5 μL aliquots from each sample were taken and placed into a glass cell chamber (Leja Products B.V., Nieuw-Vennep, The Netherlands). Sperm were maintained at 37 °C on a heated platform and viewed with an Olympus BX51 microscope (Olympus, Center Valley, PA, USA) through a 20× phase objective. Images of the moving sperm were captured using a CCD camera. Samples were analyzed by CASA using the Minitube SpermVision Digital Semen Evaluation system (version 3.5; Penetrating Innovations, Verona, WI, USA). An average of 200 cells/field were captured, at a rate of 30 frames per field, and a total of 10 fields in each sample were analyzed. Total sperm motility was obtained from sperm maintained in a non-capacitating medium, while for assessing the hyperactive pattern of motility, typical of sperm capacitation, cells were incubated in Whitten’s medium with the addition of 1.7 mM CaCl2, 25 mM sodium bicarbonate, and 0.5% bovine serum albumin.
(§1) Figure 2 Effect of simplified steroidal analogs on mouse sperm total motility. Sperm was isolated from the cauda epididymis and treated in the absence and presence of the indicated concentrations of each compound. After one hour of incubation, sperm motility was determined by CASA. Values are expressed as the mean ± SEM of three determinations.
as §1, with “4” for “2”, “non-steroidal small compounds” for “simplified steroidal analogs”, “1 h” for “one hour”

[2] = MDCK cell permeability; details: dog, MDCK; for Papp A→B / recovery: MDCK cells; for Papp A→B: BSA 0% for controls, 0.5% for 13
[3] = Caco-2 cell permeability; type: in vitro ADME, human; details: human; for Papp A→B / recovery: Caco-2, Caco-2 cells; for Papp A→B: read-out: Papp (A-B); for Papp B→A / efflux ratio: Caco-2 cells; for efflux ratio: Papp(B-A)/Papp(A-B)
Method: The in vitro permeability and potential to be transported by P-gp (P-glycoprotein) were determined in a Caco-2 or MDCK cell line. Values are reported for a mass recovery > 60%. The efflux ratio was determined as follows: P^app(B-A)/Papp(A-B). The experimental details are reported in the Supporting Information (Tables S2–S5).
The recovery can be determined using the following equation:
Recovery%=(VA×[drug]acceptor+VD×[drug]donor)/(VD×[drug]initial, donor)
Where VA is the volume (in mL) in the acceptor well (0.235 mL for Ap→Bl flux, and 0.075 mL for
Bl→Ap), VD is the volume (in mL) in the donor well (0.075 mL for Ap→Bl flux, and 0.235 mL for
The leakage of Lucifer Yellow, in unit of percentage (%), can be calculated using the following
%LY leakage = 100×[LY]acceptor×0.3/([LY]donor×0.1+[LY]acceptor×0.3)
LY leakage of <1% is acceptable to indicate the well-qualified MDCK/ Caco-2 monolayer.
Table S5 . The Assessment of Caco-2 Cell Monolayer Integrity
The apparent permeability coefficient (Papp), Efflux ratio (ER), recovery percentage, and LY leakage percentage can be
calculated for Caco-2 Cell drug transport assays using the above equations. […]

[4] = simplified steroid analogs, mouse sperm motility
[5] = non-steroidal small molecules, mouse sperm motility

C[C@]12CC[C@H]3[C@@H](CC=C4C[C@@H](O)CC[C@@]43C)[C@@H]1CC[C@@H]2c1c[nH]nn1 [Compound 15, (3S,8S,9S,10R,13S,14S,17S)-10,13-Dimethyl-17-(1H-1,2,3-triazol-4-yl)-2,3,4,7,8,9,10,11,12,13,14,15,16,17-tetradecahydro-1H-cyclopenta[a]phenanthren-3-ol]
Emax ([1]; simplified steroid analogs): 42%
Shape of inhibitory dose response on sperm motility [1]: monotonic inhibitory response
IC50 [1, 4]: 0.019 nM
IC50 (pM) [1, 4]: sub-nanomolar range

C[C@]12CC[C@H](OC(=O)[C@@H](N)CCCCN)CC1=CCC1C2CC[C@@]2(C)C1CC[C@@H]2c1cn(Cc2ccccc2)nn1.Cl.Cl (stereo partly drawn) [Compound 19, (3S,10R,13S,17S)-17-(1-Benzyl-1H-1,2,3-triazol-4-yl)-10,13-dimethyl-2,3,4,7,8,9,10,11,12,13,14,15,16,17-tetradecahydro-1H-cyclopenta[a]phenanthren-3-yl L-Lysinate Dihydrochloride]
Emax ([1]; simplified steroid analogs): ~37%
Shape of inhibitory dose response on sperm motility [1]: biphasic inhibition
IC50 [1, 4]: 0.032 nM

C[C@]12CC[C@H]3[C@@H](CC=C4C[C@@H](O)CC[C@@]43C)[C@@H]1CC[C@H]2n1cc(-c2ccccc2)nn1 [Compound 24, (3S,8R,9S,10R,13S,14S,17R)-10,13-Dimethyl-17-(4-phenyl-1H-1,2,3-triazol-1-yl)-2,3,4,7,8,9,10,11,12,13,14,15,16,17-tetradecahydro-1H-cyclopenta[a]phenanthren-3-ol]
Emax ([1]; simplified steroid analogs): 50%
Shape of inhibitory dose response on sperm motility [1]: biphasic inhibition
IC50 [1, 4]: 0.015 nM

C[C@]12CC[C@H]3[C@@H](CC=C4C[C@H](N5CCOCC5)CC[C@@]43C)[C@@H]1CC[C@H]2n1cc(-c2ccccc2)nn1 [Compound 26, 4-((3R,8R,9S,10R,13S,14S,17R)-10,13-Dimethyl-17-(4-phenyl-1H-1,2,3-triazol-1-yl)-2,3,4,7,8,9,10,11,12,13,14,15,16,17-tetradecahydro-1H-cyclopenta[a]phenanthren-3-yl)morpholine]
Emax ([1]; simplified steroid analogs): ~40%
Shape of inhibitory dose response on sperm motility [1]: biphasic inhibition
IC50 [1, 4]: 0.031 nM

C[C@]12CCC(=O)C=C1CC[C@@H]2c1cn(Cc2ccccc2)nn1 [Compound 33, (1S,7aR)-1-(1-Benzyl-1H-1,2,3-triazol-4-yl)-7a-methyl-1,2,3,6,7,7a-hexahydro-5H-inden-5-one]
Emax ([1]; non-steroidal small molecules): 48%
IC50 [1, 5]: 0.023 nM

CC12CCC(=O)C=C1CCC2c1c[nH]nn1 [Compound 35, (1S,7aR)-7a-Methyl-1-(1H-1,2,3-triazol-4-yl)-1,2,3,6,7,7a-hexahydro-5H-inden-one]
Emax ([1]; non-steroidal small molecules): 47%
IC50 [1, 5]: 0.071 nM

CC12CCC(=NN=C(N)N)C=C1CCCC2c1cn(Cc2ccccc2)nn1 (centres unmarked) [Compound 40, N’-(5-(1-Benzyl-1H-1,2,3-triazol-4-yl)-4a-methyl-4,4a,5,6,7,8-hexahydronaphthalen-2(3H)-ylidene)amidinohydrazone]
Emax ([1]; non-steroidal small molecules): 49%
IC50 [1, 5]: 0.06 nM

CC12CCC(=NN=C(N)N)C=C1CCC2C=NN=C(N)N [Compound 41, (E+Z)-2-(((1S,7aR,E)-5-(2-Carbamimidoylhydrazineylidene)-7a-methyl-2,3,5,6,7,7a-hexahydro-1H-inden-1-yl)methylene)hydrazine-1-carboximidamide, reference compound]
Emax ([1]; non-steroidal small molecules): 44%
IC50 [1, 5]: 0.037 nM

CC12CCC(=NN=C(N)N)C=C1CCCC2C=NN=C(N)N (centres unmarked) [Compound 42, (E+Z)-2-((6-(2-Carbamimidoylhydrazineylidene)-8a-methyl-1,2,3,4,6,7,8,8a-octahydronaphthalen-1-yl)methylene)hydrazine-1-carboximidamide]
Emax ([1]; non-steroidal small molecules): 49%
IC50 [1, 5]: 0.302 nM

C[C@H]1O[C@@H](O[C@H]2[C@@H](O)C[C@H](O[C@H]3[C@@H](O)C[C@H](O[C@H]4CC[C@@]5(C)[C@H](CC[C@@H]6[C@@H]5C[C@@H](O)[C@]5(C)[C@@H](C7=CC(=O)OC7)CC[C@]65O)C4)O[C@@H]3C)O[C@@H]2C)C[C@H](O)[C@@H]1O [Digoxin]
Papp B→A [2]: 3.29 ×10⁻⁶ cm/s
efflux ratio [2]: 3.26
Papp A→B [2]: 1.01 ×10⁻⁶ cm/s
recovery ([2]; Recovery (%) AP-BL): 84%
recovery ([2]; Recovery (%) BL-AP): 106%
Papp A→B [3]: 0.63 ×10⁻⁶ cm/s
recovery ([3]; read-out: Recovery (%) AP-BL): 88.7%
recovery ([3]; read-out: Recovery (%) BL-AP): 107%
Papp B→A [3]: 18.8 ×10⁻⁶ cm/s
efflux ratio [3]: 30

COCCc1ccc(OCC(O)CNC(C)C)cc1 (centres unmarked) [Metoprolol]
Papp B→A [2]: 17 ×10⁻⁶ cm/s
efflux ratio [2]: 0.79
Papp A→B [2]: 21.6 ×10⁻⁶ cm/s
recovery ([2]; Recovery (%) AP-BL): 83.5%
recovery ([2]; Recovery (%) BL-AP): 97.1%

COc1cc2nc(N3CCN(C(=O)c4ccco4)CC3)nc(N)c2cc1OC [Prazosin]
Papp A→B [3]: 7.59 ×10⁻⁶ cm/s
recovery ([3]; read-out: Recovery (%) AP-BL): 71.4%
recovery ([3]; read-out: Recovery (%) BL-AP): 85%
Papp B→A [3]: 24.3 ×10⁻⁶ cm/s

CC(C)NCC(O)COc1cccc2ccccc12 (centres unmarked) [Propranolol]
Papp A→B [3]: 24.4 ×10⁻⁶ cm/s
recovery ([3]; read-out: Recovery (%) AP-BL): 72.8%
recovery ([3]; read-out: Recovery (%) BL-AP): 86.6%
Papp B→A [3]: 16.4 ×10⁻⁶ cm/s
efflux ratio [3]: 0.67

Reference: PMC12192727, “Strategies to Develop Na,K-ATPase-α4 Inhibitors as Male Contraceptives” (International Journal of Molecular Sciences, 2025)
